According to patent US12435061B2 (priority 2020, dated 2025):
Converted amounts (≈) assume the structure as drawn.

Columns and labels:
[1] = biological target: T1, hTRPV3 (Homo sapiens (Human), UniProt Q8NET8); assay: FLIPR Assay (calcium flux, HEK293 cells stably expressing TRPV3); assay type: cell-based
Protocol: In Tables 3 and 4, Phase 1 refers to Phase 1 current for human (h) TRPV3 or rat (r) TRPV3, and Phase 2 refers to Phase 2 current for human (h) TRPV3 or rat (r) TRPV3. The hTRPV3 and rTRPV3 assays were performed as described herein. hERG refers to the inhibition the human ERG (hERG) channel. NaV1.5, refers to the pore forming aL-subunit of the voltage-dependent cardiac Na(+) channel and is an integral membrane protein involved in the initiation and conduction of action potentials. hTRPV3 HAMA IC50 refers to the IC50 of TRPV3 cells stably expressed in TRex-293 cells. Solubility Ringer refers to the compounds' solubility in Ringer's solution. LM T1/2 refers to liver microsome half-lives in either rat or human liver microsomes. FLIPR IC50 refers to the IC50 of the test compounds against recombinant hTRPV3 cells.
The cells were treated with IBSS and 20 mM HEPES adjusted to pH 7.4 in the presence of the fluorescent calcium indicator e.g. Fluo-4AM (5 uM) and the plates were incubated at 37° C. and […] for approximately 1 hour and cooled to room temperature. […] Relative Fluorescence Units (RFU) were measured for each response for signal maximum minus minimum during approximately 90 seconds after addition.

[2] = Aqueous solubility assay in Normal Ringer Solution; conditions: Normal Ringer Solution
Protocol: Following vortex and incubation for a sufficient time (e.g. 40 minutes at room temperature), solutions were filtered, quenched with acetonitrile, and analyzed by Liquid Chromotography. Solubility Limits were determined by comparison to a standard curve.

[3] = biological target: T1, hTRPV3; assay: hTRPV3 HAMA IC50 assay (Hamamatsu FDSS6000 calcium flux, TRex-293 cells)
Protocol: IC50s were calculated using CBIS from ChemInnovation (San Diego).

[4] = Metabolic Stability assay, rat liver microsomes; assay type: in vitro ADME; conditions: 1 μM
Summary of the method: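 Reactions in human or rat liver microsomes at 37 °C were started with an NADPH-regenerating system, using 1 μM compound initially. Samples were taken at 0, 7, 15, 30 and 60 min, quenched in ice-cold acetonitrile/MeOH/H2O, and quantified by HPLC/MS/MS.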

[5] = biological target: T1, hTRPV3; assay: Whole-cell patch clamp, hTRPV3 Phase 1 / Phase 2 currents; assay type: cell-based; conditions: Phase 1 current
Summary of the method: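 Currents are activated by 20 μM 2-APB or by perfusate at 28 °C or warmer, in Ringer's solution, and quantified at ±80 mV.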

T1 sequence (Q8NET8 whole entry): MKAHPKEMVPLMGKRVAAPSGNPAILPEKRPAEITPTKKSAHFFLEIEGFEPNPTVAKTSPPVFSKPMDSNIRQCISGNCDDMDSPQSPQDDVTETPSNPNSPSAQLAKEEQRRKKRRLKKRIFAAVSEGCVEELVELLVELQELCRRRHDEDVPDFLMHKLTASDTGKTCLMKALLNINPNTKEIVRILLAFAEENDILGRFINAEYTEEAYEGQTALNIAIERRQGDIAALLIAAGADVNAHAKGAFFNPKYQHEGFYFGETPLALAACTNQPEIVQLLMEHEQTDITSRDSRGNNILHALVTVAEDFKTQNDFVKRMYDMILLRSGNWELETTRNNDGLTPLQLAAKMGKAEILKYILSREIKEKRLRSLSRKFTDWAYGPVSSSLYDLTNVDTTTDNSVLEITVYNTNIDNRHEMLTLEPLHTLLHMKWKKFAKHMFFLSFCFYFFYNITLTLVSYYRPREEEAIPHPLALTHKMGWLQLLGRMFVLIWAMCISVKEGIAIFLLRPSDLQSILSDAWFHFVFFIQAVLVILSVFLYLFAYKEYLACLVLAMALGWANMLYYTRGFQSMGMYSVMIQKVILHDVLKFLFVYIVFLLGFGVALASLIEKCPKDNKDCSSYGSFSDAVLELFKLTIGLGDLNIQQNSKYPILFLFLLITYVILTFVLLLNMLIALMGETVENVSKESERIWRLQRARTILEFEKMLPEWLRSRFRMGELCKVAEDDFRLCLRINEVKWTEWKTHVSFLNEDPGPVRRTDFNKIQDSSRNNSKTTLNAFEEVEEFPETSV

Compound	IC50 ([1]; read-out: FLIPR IC50)	other results
Cc1ccc(C(=O)N2CCC(c3ccc(-c4ccccc4C4CC4)cc3CO)C2)nc1O (stereo not shown) [Compound 2-140]	5.57 µM	–
COc1ccnc(C(=O)N2CCC(c3ccc(-c4ccccc4C4CC4)cc3CO)C2)c1 (stereo not shown) [Compound 2-141]	4.49 µM	–
Cc1nnc(C(=O)N2CCC(c3ccc(-c4ccccc4C4CC4)cc3CO)C2)cc1O (stereo not shown) [Compound 2-142]	> 10 µM	–
Cc1nc(C(=O)N2CCC(c3ccc(-c4ccccc4C4CC4)cc3CO)C2)ccc1O (stereo not shown) [Compound 2-143]	–	IC50 ([1]; FLIPR IC50 (uM)): 0.86 µM; solubility at 40 min ([2]; saline or isotonic, kinetic from dmso stock): 0.0183 µM (≈ 7.84 ng/mL); IC50 ([3]; read-out: hTRPV3 HAMA IC50, 2-APB stimulated calcium flux): 0.0103 µM
Cc1nc(C(=O)N2CCC(c3ccc(-c4ccccc4C4CC4)cc3CO)C2)ccc1CO (stereo not shown) [Compound 2-144]	3.27 µM	–
O=C(c1ncc(Cl)cn1)N1CCC(c2ccc(-c3ccccc3C3CC3)cc2CO)C1 (stereo not shown) [Compound 2-159]	5.18 µM	–
O=C(c1csc(CO)n1)N1CCC(c2ccc(-c3ccccc3C3CC3)cc2CO)C1 (stereo not shown) [Compound 2-160]	> 10 µM	–
Cn1cnc(C(=O)N2CCC(c3ccc(-c4ccccc4C4CC4)cc3CO)C2)c1 (stereo not shown) [Compound 2-161]	9.52 µM	–
O=C(c1cc2n(n1)CCC2)N1CCC(c2ccc(-c3ccccc3C3CC3)cc2CO)C1 (stereo not shown) [Compound 2-162]	5.19 µM	–
Cn1ccc(C(=O)N2CCC(c3ccc(-c4ccccc4C4CC4)cc3CO)C2)n1 (stereo not shown) [Compound 2-163]	> 10 µM	–
Cn1ccnc1C(=O)N1CCC(c2ccc(-c3ccccc3C3CC3)cc2CO)C1 (stereo not shown) [Compound 2-164]	> 10 µM	–
CN1CCc2nc(C(=O)N3CCC(c4ccc(-c5ccccc5C5CC5)cc4CO)C3)sc2C1 (stereo not shown) [Compound 2-165]	> 10 µM	–
CCc1oc(C(=O)N2CCC(c3ccc(-c4ccccc4C4CC4)cc3CO)C2)nc1C (stereo not shown) [Compound 2.145]	4.43 µM	–
Cc1coc(C(=O)N2CCC(c3ccc(-c4ccccc4C4CC4)cc3CO)C2)n1 (stereo not shown) [Compound 2.146]	5.95 µM	–
Cc1ocnc1C(=O)N1CCC(c2ccc(-c3ccccc3C3CC3)cc2CO)C1 (stereo not shown) [Compound 2.148]	2.93 µM	–
O=C(c1nccnc1O)N1CCC(c2ccc(-c3ccccc3C3CC3)cc2CO)C1 (stereo not shown) [Compound 2.150]	> 10 µM	–
COc1cncc(C(=O)N2CCC(c3ccc(-c4ccccc4C4CC4)cc3CO)C2)n1 (stereo not shown) [Compound 2.151]	0.78 µM	–
O=C(c1cccc(CO)n1)N1CCC(c2ccc(-c3ccccc3C3CC3)cc2CO)C1 (stereo not shown) [Compound 2.152]	4.56 µM	–
O=C(c1cc(CO)ccn1)N1CCC(c2ccc(-c3ccccc3C3CC3)cc2CO)C1 (stereo not shown) [Compound 2.154]	4.21 µM	–
COCc1ccnc(C(=O)N2CCC(c3ccc(-c4ccccc4C4CC4)cc3CO)C2)c1 (stereo not shown) [Compound 2.155]	9.25 µM	–
COc1cnc(C(=O)N2CCC(c3ccc(-c4ccccc4C4CC4)cc3CO)C2)nc1 (stereo not shown) [Compound 2.158]	6.12 µM	–
(S)-(2′-chloro-4-(3-(5-(trifluoromethyl)pyridin-2-yloxy)pyrrolidin-1-yl)biphenyl-3-yl)methanol [Compound 1-132]	–	LM T1/2 (min) (rat) [4]: 54.1 (rat) min; IC50 ([5]; inward, whole-cell patch clamp, read-out: hTRPV3 Patch P1 Inwd): 10 to 100 nM; IC50 ([5]; read-out: hTRPV3 (nM) (Phase 1)): 32 nM; Solubility Ringer (nM) ([2]; room temperature): BLQ; hTRPV3 HAMA IC50 (nM) (5 min) ([3]; 5 min): no fit (5 min)
